Test results from patent publication US20220169632A1, “METHODS AND MATERIALS FOR INCREASING OR MAINTAINING NICOTINAMIDE MONONUCLEOTIDE ADENYLYL TRANSFERASE-2 (NMNAT2) POLYPEPTIDE LEVELS” (University of Pittsburgh - Of the Commonwealth System of …, priority 2019, published 2022).

tested on: NMNAT2; assay: NMNAT2-Hibit nano-luciferase activity in transfected U87MG cells, 25 μM, 24 hours; type: cell-based; conditions: NMNAT2-Hibit luc plasmid, 24 hours (Table B)
Protocol: Selected compounds were tested in vitro. Briefly, U87MG cells were transfected with NMNAT2-Hibit luc plasmid. Cells were treated with a test compound at 25 μM for 24 hours. Cells were then collected and assayed for nano-luciferase activity.

| SMILES | B: compound efficacy (IC50) for NMNAT2 activation; increase in NMNAT2 luciferase activity |
| --- | --- |
| CCOc1ccccc1CNC(=O)NCc1noc2ccccc12 [Compound 181020] | + (“+” <20% increase in NMNAT2 luciferase activity.) |
| CCc1ccccc1NC(=O)NCc1noc2ccc(C)cc12 [Compound 181075] | + (“+” <20% increase in NMNAT2 luciferase activity.) |
| Cc1ccc(CNC(=O)NCc2noc3ccccc23)cc1 [Compound 181022] | + (“+” <20% increase in NMNAT2 luciferase activity.) |
| Cc1ccc2onc(CNC(=O)Nc3cccc(C(F)(F)F)c3)c2c1 [Compound 181037] | + (“+” <20% increase in NMNAT2 luciferase activity.) |
| Cc1ccc2onc(CNC(=O)NCc3cccnc3)c2c1 [Compound 181051] | + (“+” <20% increase in NMNAT2 luciferase activity.) |
| COCCCNC(=O)NCc1noc2ccc(C)cc12 [Compound 181048] | ++ (“++” >20% and <100% increase in NMNAT2 luciferase activity.) |
| CN(C(=O)NCc1noc2ccccc12)c1ccc(Br)cc1 [Compound 181015] | + (“+” <20% increase in NMNAT2 luciferase activity.) |
| Cc1cccc(CCNC(=O)NCc2noc3ccccc23)c1 [Compound 181023] | + (“+” <20% increase in NMNAT2 luciferase activity.) |
| CC(NC(=O)NCc1noc2ccccc12)c1ccccc1 (stereo not shown) [Compound 181034] | + (“+” <20% increase in NMNAT2 luciferase activity.) |
| CC(=O)c1cccc(NC(=O)NCc2noc3ccc(C)cc23)c1 [Compound 181084] | + (“+” <20% increase in NMNAT2 luciferase activity.) |
| CSc1ccc(CCNC(=O)NCc2noc3ccc(C)cc23)cc1 [Compound 181089] | ++ (“++” >20% and <100% increase in NMNAT2 luciferase activity.) |
| O=C(NCc1noc2ccccc12)Nc1ccccc1Cl [Compound 181027] | + (“+” <20% increase in NMNAT2 luciferase activity.) |
| CCn1c2ccccc2c2cc(NC(=O)NCc3noc4ccc(C)cc34)ccc21 [Compound 181064] | + (“+” <20% increase in NMNAT2 luciferase activity.) |
| Cc1ccc2onc(CNC(=O)NC3CCN(Cc4ccccc4)CC3)c2c1 [Compound 181065] | + (“+” <20% increase in NMNAT2 luciferase activity.) |
| O=C(NCc1noc2ccccc12)Nc1cccc(C(F)(F)F)c1 [Compound 181002] | + (“+” <20% increase in NMNAT2 luciferase activity.) |
| Cc1ccc2onc(CNC(=O)NCc3ccccn3)c2c1 [Compound 181050] | + (“+” <20% increase in NMNAT2 luciferase activity.) |

same assay, conditions: NMNAT2-Hibit luc plasmid, 24 hours (Table C)

| SMILES | C: Compound efficacy for NMNAT2 activation; increase in NMNAT2 luciferase activity |
| --- | --- |
| Cc1cc2ncn(CC(=O)NCc3ccco3)c2cc1C [Compound 181159] | + (“+” <20% increase in NMNAT2 luciferase activity.) |
| Cc1cc(C)n(CC(=O)NCC2=CC=CC2)c(=O)c1C#N [Compound 181129] | + (“+” <20% increase in NMNAT2 luciferase activity.) |
| COc1ccc(CNC(=O)Cn2ccc3ccc(F)cc32)cc1OC [Compound 181150] | + (“+” <20% increase in NMNAT2 luciferase activity.) |
| Cn1cc(C(CC(=O)NCc2ccco2)c2cccc(F)c2)c2ccccc21 (stereo not shown) [Compound 181143] | + (“+” <20% increase in NMNAT2 luciferase activity.) |
| Cc1cc(C)n(CC(=O)NCCC(C)C)c(=O)c1C#N [Compound 181131] | + (“+” <20% increase in NMNAT2 luciferase activity.) |
| O=C(Cn1ccc2ccc(Br)cc21)NCCCc1ccco1 [Compound 181153] | ++ (“++” >20% and <100% increase in NMNAT2 luciferase activity.) |
| COc1cccc2ccn(CC(=O)NCc3ccco3)c12 [Compound 181146] | + (“+” <20% increase in NMNAT2 luciferase activity.) |
| COc1ccc2c(ccn2CCNC(=O)c2ccco2)c1 [Compound 181157] | + (“+” <20% increase in NMNAT2 luciferase activity.) |

tested on: NMNAT2; assay: NMNAT2-Hibit nano-luciferase activity in transfected U87MG cells, 5 μM, 48 hours; type: cell-based; conditions: NMNAT2-Hibit luciferase plasmid, 48 hours (Table D)
Protocol: Selected compounds were tested in vitro. Briefly, U87MG cells were transfected with NMNAT2-Hibit luciferase plasmid. Cells were treated with test compound at 5 μM for 48 hours. Cells were then collected and assayed for nano-luciferase activity.

| SMILES | D: compound efficacy for NMNAT2 activation; increase in NMNAT2 luciferase activity |
| --- | --- |
| CC(NC(=O)Cn1cc(C(=O)c2ccccc2)c2ccccc21)c1ccccc1 (stereo not shown) [BC181224] | + (“+” <20% increase in NMNAT2 luciferase activity.) |
| CC(NC(=O)Cn1cc(C(=O)C2CCCCC2)c2ccccc21)c1ccccc1 (stereo not shown) [BC181225] | + (“+” <20% increase in NMNAT2 luciferase activity.) |
| Cc1cccc(NC(=O)Cn2cc(C(=O)c3ccccc3)c3ccccc32)c1 [BC181208] | + (“+” <20% increase in NMNAT2 luciferase activity.) |
| COc1ccc(C(CC(=O)NCc2ccco2)c2cn(Cc3ccc(C)cc3)c3ccccc23)cc1 (stereo not shown) [BC181261] | ++ (“++” >20% and <100% increase in NMNAT2 luciferase activity.) |
| Cc1ccc(NC(=O)Cn2cc(C(=O)c3ccccc3)c3ccccc32)cc1C [BC181212] | + (“+” <20% increase in NMNAT2 luciferase activity.) |
| Cc1ccc2c(c1)c(=O)c(C(=O)c1ccncc1)cn2CC(=O)NCc1ccc(Cl)cc1 [BC181251] | ++ (“++” >20% and <100% increase in NMNAT2 luciferase activity.) |
| Cc1ccc(Cn2cc(CCCC(=O)NCc3ccco3)c3ccccc32)cc1 [BC181230] | +++ (“+++” >100% increase in NMNAT2 luciferase activity.) |
| Cc1ccc(Cn2cc(C(CC(=O)NCc3ccco3)c3ccccc3C)c3ccccc32)cc1 (stereo not shown) [BC181260] | ++ (“++” >20% and <100% increase in NMNAT2 luciferase activity.) |
| CCN(CC)C(=O)Cn1cc(C(=O)c2ccccc2)c2ccccc21 [BC181217] | + (“+” <20% increase in NMNAT2 luciferase activity.) |
| Cc1ccc(Cn2cc(CCCC(=O)NCc3ccco3)c3ccccc32)cc1 [BC181231] | ++ (“++” >20% and <100% increase in NMNAT2 luciferase activity.) |
| Cc1ccc(CNC(=O)c2ccc3c(c2)c(C)c(C)n3Cc2ccccc2)o1 [BC181248] | ++ (“++” >20% and <100% increase in NMNAT2 luciferase activity.) |
| Cc1c(C)n(Cc2ccccc2)c2ccc(C(=O)NCc3ccco3)cc12 [BC181247] | +++ (“+++” >100% increase in NMNAT2 luciferase activity.) |
| CCn1cc(CCCC(=O)NCc2ccc(F)cc2)c2ccccc21 [BC181229] | ++ (“++” >20% and <100% increase in NMNAT2 luciferase activity.) |
| Cc1ccccc1Cn1cc(CCC(=O)NCC2=CC=CC2)c2ccccc21 [BC181242] | + (“+” <20% increase in NMNAT2 luciferase activity.) |
| Cc1ccccc1Cn1cc(CCC(=O)NCc2ccco2)c2ccccc21 [BC181243] | ++ (“++” >20% and <100% increase in NMNAT2 luciferase activity.) |
| CCC(=O)c1cn(CC(=O)NCc2cccnc2)c2ccccc12 [BC181226] | + (“+” <20% increase in NMNAT2 luciferase activity.) |
| CCCNC(=O)CCCc1cn(Cc2ccc(C)cc2)c2ccccc12 [BC181233] | + (“+” <20% increase in NMNAT2 luciferase activity.) |
| Cc1ccccc1Cn1cc(CCCC(=O)NCc2ccco2)c2ccccc21 [BC181235] | ++ (“++” >20% and <100% increase in NMNAT2 luciferase activity.) |
| Cc1ccc(CNC(=O)Cn2cc(C(=O)c3ccncc3)c(=O)c3cc(C)c(C)cc32)cc1 [BC181255] | + (“+” <20% increase in NMNAT2 luciferase activity.) |
| Cc1ccc2c(c1)c(=O)c(C(=O)c1ccncc1)cn2CC(=O)NCc1ccccc1 [BC181249] | + (“+” <20% increase in NMNAT2 luciferase activity.) |
| CC1CCCCN1C(=O)Cn1cc(C(=O)c2ccccc2)c2ccccc21 (stereo not shown) [BC181218] | + (“+” <20% increase in NMNAT2 luciferase activity.) |
| COc1ccc(NC(=O)Cn2cc(C(=O)c3ccccc3)c3ccccc32)cc1 [BC181213] | + (“+” <20% increase in NMNAT2 luciferase activity.) |
| O=C(Cn1cc(C(=O)C2CC2)c2ccccc21)NCc1ccco1 [BC181202] | + (“+” <20% increase in NMNAT2 luciferase activity.) |
| O=C(Cn1cc(C(=O)c2ccccc2)c2ccccc21)NCc1ccco1 [BC181206] | ++ (“++” >20% and <100% increase in NMNAT2 luciferase activity.) |
| O=C(Cn1cc(C(=O)C2CCCCC2)c2ccccc21)NCCc1ccccc1 [BC181222] | ++ (“++” >20% and <100% increase in NMNAT2 luciferase activity.) |
